Results on one compound are retold here after patent publication US7351875B2, “FcγRIIa transgenic animal model for autoimmune disease” (Trillium Therapeutics, Inc., priority 2002, dated 2008).

The test system of test [1] is non transgenic DBA/1 mice with CIA. The conditions noted are these: Neurath, Hildner et al. 1999; cited from earlier work.
For test [2], the system named is FcγRIIa transgenic mice with CIA. In words: Collagen-induced arthritis (CIA) in FcγRIIa transgenic mice, arthritis index. The conditions noted are these: FIG. 14. The format is in vivo, mouse. The source says: In transgenic mouse models of the present invention the following mice strains were used DBA/1 (H-2^q) males at 8-12 weeks old, C57BL/6 (H-2^b) and (C57BL/6×SJ (H-2^b/s) males or females at 8-15 weeks old, and transgenic mice expressing the FcγRIIa human transgene on platelets, neutrophils and macrophages at physiological levels, (as described in McKenzie et al. 1999). Transgenic males or females at 12-15 weeks old were used in collagen-induced arthritis (CIA) experiments, and >25 weeks old for the spontaneous autoimmune disease studies. All mice were bred and kept in clean conditions and were fed a standard diet and water ad libitum. The mouse is characterised in the published paper by McKenzie et al. 1999, listed in references.
Complete Freund's Adjuvant (CFA) was prepared by mixing 100 mg heat-killed M tuberculosis H37 Ra (Difco Laboratories, Detroit, Mich.) ground in 20 ml Incomplete Freund's Adjuvant (Difco Laboratories, Detroit, Mich.). […]
Mice were examined 2-3 times per week from day 14 onwards. […] The score of each mouse was calculated for the four limbs (maximum total score of 12 for each mouse) (Campbell et al. 1997). […]
The score for each mouse was calculated by adding the scores of the four limbs (maximum score of 12 for each mouse) (Campbell et al. 1997). […]

`CN(Cc1cnc2nc(N)nc(N)c2n1)c1ccc(C(=O)N[C@@H](CCC(=O)O)C(=O)O)cc1` [methotrexate]: the “delay of CIA in DBA/1 mice” value in test [1] is on record as “effective in delaying CIA”. The “delay of CIA” value in test [2] (1 mg/kg for 14 days from second collagen injection, day 21-35) is recorded as “effective in delaying CIA”. Moreover, the “disease after treatment ceased” value in test [2] (as immune function returned to normal after treatment ceased) is on record as “increased in severity”.
